According to PubChem BioAssay (NCI):
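How tested: cells in 96-well plates exposed to compound for 48 hours at five concentrations. The concentration for full growth arrest is given as TGI.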

How the values were obtained:
Assay in all cases: NCI tumour cell line growth inhibition, 48 h
BT-549 breast = tested on: BT-549 breast
DMS 114 small cell lung = tested on: DMS 114 small cell lung
HCT-15 colon = tested on: HCT-15 colon
SNB-78 CNS = tested on: SNB-78 CNS
A498 renal = tested on: A498 renal
KM20L2 colon = tested on: KM20L2 colon
CCRF-CEM leukemia = tested on: CCRF-CEM leukemia
SN12C renal = tested on: SN12C renal
DMS 273 small cell lung = tested on: DMS 273 small cell lung
SR leukemia = tested on: SR leukemia
NCI-H460 lung = tested on: NCI-H460 lung
HCT-116 colon = tested on: HCT-116 colon
SW-620 colon = tested on: SW-620 colon
COLO 205 colon = tested on: COLO 205 colon
NCI-H226 lung = tested on: NCI-H226 lung
T-47D breast = tested on: T-47D breast
LXFL 529 NSCLC = tested on: LXFL 529 NSCLC
UACC-62 melanoma = tested on: UACC-62 melanoma
OVCAR-4 ovarian = tested on: OVCAR-4 ovarian
U251 CNS = tested on: U251 CNS
RPMI-8226 leukemia = tested on: RPMI-8226 leukemia
M14 melanoma = tested on: M14 melanoma
HT29 colon = tested on: HT29 colon
SNB-19 CNS = tested on: SNB-19 CNS
NCI-H23 lung = tested on: NCI-H23 lung
SF-268 CNS = tested on: SF-268 CNS
MCF7 breast = tested on: MCF7 breast
MALME-3M melanoma = tested on: MALME-3M melanoma
OVCAR-5 ovarian = tested on: OVCAR-5 ovarian
HOP-62 NSCLC = tested on: HOP-62 NSCLC
IGROV1 ovarian = tested on: IGROV1 ovarian
MDA-N = tested on: MDA-N
MDA-MB-435 = tested on: MDA-MB-435
PC-3 prostate = tested on: PC-3 prostate
NCI-H522 lung = tested on: NCI-H522 lung
SK-MEL-28 melanoma = tested on: SK-MEL-28 melanoma
MDA-MB-231 breast = tested on: MDA-MB-231 breast
DLD-1 colon = tested on: DLD-1 colon
EKVX NSCLC = tested on: EKVX NSCLC
SNB-75 CNS = tested on: SNB-75 CNS
HL-60(TB) leukemia = tested on: HL-60(TB) leukemia
SF-539 CNS = tested on: SF-539 CNS
CAKI-1 renal = tested on: CAKI-1 renal
MOLT-4 leukemia = tested on: MOLT-4 leukemia
K-562 leukemia = tested on: K-562 leukemia
RXF-631 renal = tested on: RXF-631 renal
M19-MEL melanoma = tested on: M19-MEL melanoma
XF 498 CNS = tested on: XF 498 CNS
KM12 colon = tested on: KM12 colon
OVCAR-8 ovarian = tested on: OVCAR-8 ovarian
SF-295 CNS = tested on: SF-295 CNS
UACC-257 melanoma = tested on: UACC-257 melanoma
RXF 393 renal = tested on: RXF 393 renal
HOP-92 NSCLC = tested on: HOP-92 NSCLC
HCC-2998 colon = tested on: HCC-2998 colon
786-0 renal = tested on: 786-0 renal
SK-MEL-2 melanoma = tested on: SK-MEL-2 melanoma
OVCAR-3 ovarian = tested on: OVCAR-3 ovarian
TK-10 renal = tested on: TK-10 renal
SK-OV-3 ovarian = tested on: SK-OV-3 ovarian
HOP-18 NSCLC = tested on: HOP-18 NSCLC
SK-MEL-5 melanoma = tested on: SK-MEL-5 melanoma
UO-31 renal = tested on: UO-31 renal
DU-145 prostate = tested on: DU-145 prostate
LOX IMVI melanoma = tested on: LOX IMVI melanoma
ACHN renal = tested on: ACHN renal
A549 NSCLC = tested on: A549 NSCLC
P388 leukemia = tested on: P388 leukemia
SN12K1 renal = tested on: SN12K1 renal
NCI/ADR-RES ovarian = tested on: NCI/ADR-RES ovarian
P388/ADR leukemia = tested on: P388/ADR leukemia

## Nc1nc(-c2ccccc2)c(Cl)c(-c2cc(Cl)ccc2O)n1
BT-549 breast
  TGI: > 100 µM
DMS 114 small cell lung
  TGI: 66.6 µM
HCT-15 colon
  TGI: > 100 µM
SNB-78 CNS
  TGI: > 82.7 µM
A498 renal
  TGI: > 76.5 µM
KM20L2 colon
  TGI: > 100 µM
CCRF-CEM leukemia
  TGI: > 100 µM
SN12C renal
  TGI: 87.5 µM
DMS 273 small cell lung
  TGI: 90.9 µM
SR leukemia
  TGI: > 100 µM
NCI-H460 lung
  TGI: 99.3 µM
HCT-116 colon
  TGI: 27.1 µM
SW-620 colon
  TGI: > 100 µM
COLO 205 colon
  TGI: > 100 µM
NCI-H226 lung
  TGI: 61.3 µM
T-47D breast
  TGI: 36.4 µM
LXFL 529 NSCLC
  TGI: > 73.1 µM
UACC-62 melanoma
  TGI: > 100 µM
OVCAR-4 ovarian
  TGI: 66.4 µM
U251 CNS
  TGI: 45.1 µM
RPMI-8226 leukemia
  TGI: > 100 µM
M14 melanoma
  TGI: > 100 µM
HT29 colon
  TGI: > 100 µM
SNB-19 CNS
  TGI: 47 µM
NCI-H23 lung
  TGI: 67.2 µM
SF-268 CNS
  TGI: > 83.1 µM
MCF7 breast
  TGI: > 100 µM
MALME-3M melanoma
  TGI: > 100 µM
OVCAR-5 ovarian
  TGI: > 100 µM
HOP-62 NSCLC
  TGI: 20.1 µM
IGROV1 ovarian
  TGI: 54.7 µM
MDA-N
  TGI: > 100 µM
MDA-MB-435
  TGI: > 100 µM
PC-3 prostate
  TGI: > 100 µM
NCI-H522 lung
  TGI: > 62.9 µM
SK-MEL-28 melanoma
  TGI: > 100 µM
MDA-MB-231 breast
  TGI: > 100 µM
DLD-1 colon
  TGI: > 100 µM
EKVX NSCLC
  TGI: > 100 µM
SNB-75 CNS
  TGI: 43.9 µM
HL-60(TB) leukemia
  TGI: > 100 µM
SF-539 CNS
  TGI: 66.5 µM
CAKI-1 renal
  TGI: 47.2 µM
MOLT-4 leukemia
  TGI: > 100 µM
K-562 leukemia
  TGI: > 46.4 µM
RXF-631 renal
  TGI: > 100 µM
M19-MEL melanoma
  TGI: > 100 µM
XF 498 CNS
  TGI: 47.5 µM
KM12 colon
  TGI: > 87.9 µM
OVCAR-8 ovarian
  TGI: 33.8 µM
SF-295 CNS
  TGI: > 94.3 µM
UACC-257 melanoma
  TGI: > 100 µM
RXF 393 renal
  TGI: 41.9 µM
HOP-92 NSCLC
  TGI: > 97.3 µM
HCC-2998 colon
  TGI: > 100 µM
786-0 renal
  TGI: 57.8 µM
SK-MEL-2 melanoma
  TGI: 99.8 µM
OVCAR-3 ovarian
  TGI: 24.2 µM
TK-10 renal
  TGI: 42.6 µM
SK-OV-3 ovarian
  TGI: 49.3 µM
HOP-18 NSCLC
  TGI: > 94.3 µM
SK-MEL-5 melanoma
  TGI: 59.6 µM
UO-31 renal
  TGI: 46.6 µM
DU-145 prostate
  TGI: > 100 µM
LOX IMVI melanoma
  TGI: > 59.2 µM
ACHN renal
  TGI: 21.5 µM
A549 NSCLC
  TGI: 71 µM

## CC1=NCCc2cc3[nH]c4ccccc4c3cc21
DMS 114 small cell lung
  TGI: 23.4 µM
HCT-15 colon
  TGI: 78.4 µM
SNB-78 CNS
  TGI: 86.9 µM
A498 renal
  TGI: 46.1 µM
KM20L2 colon
  TGI: 45.7 µM
CCRF-CEM leukemia
  TGI: 36.9 µM
SN12C renal
  TGI: 62.9 µM
DMS 273 small cell lung
  TGI: 50.6 µM
NCI-H460 lung
  TGI: 37.1 µM
HCT-116 colon
  TGI: 45.5 µM
SW-620 colon
  TGI: 52.5 µM
COLO 205 colon
  TGI: 24.5 µM
NCI-H226 lung
  TGI: 37.9 µM
UACC-62 melanoma
  TGI: 39.8 µM
OVCAR-4 ovarian
  TGI: 110 µM
P388 leukemia
  TGI: 21.9 µM
U251 CNS
  TGI: 79 µM
RPMI-8226 leukemia
  TGI: 40.3 µM
HT29 colon
  TGI: 48.7 µM
SNB-19 CNS
  TGI: 116 µM
NCI-H23 lung
  TGI: 83.8 µM
SF-268 CNS
  TGI: 77.7 µM
SN12K1 renal
  TGI: 44.6 µM
MCF7 breast
  TGI: 69.7 µM
MALME-3M melanoma
  TGI: 22.3 µM
OVCAR-5 ovarian
  TGI: 56.6 µM
HOP-62 NSCLC
  TGI: 111 µM
IGROV1 ovarian
  TGI: > 85.3 µM
NCI-H522 lung
  TGI: 84.9 µM
SK-MEL-28 melanoma
  TGI: 24.6 µM
DLD-1 colon
  TGI: 73.1 µM
EKVX NSCLC
  TGI: 95.8 µM
SNB-75 CNS
  TGI: 70 µM
HL-60(TB) leukemia
  TGI: 37.6 µM
SF-539 CNS
  TGI: 32 µM
CAKI-1 renal
  TGI: 57.6 µM
MOLT-4 leukemia
  TGI: 34.3 µM
K-562 leukemia
  TGI: 22.9 µM
M19-MEL melanoma
  TGI: 43.6 µM
XF 498 CNS
  TGI: 30.5 µM
KM12 colon
  TGI: 78.8 µM
OVCAR-8 ovarian
  TGI: > 88.5 µM
SF-295 CNS
  TGI: 46.8 µM
UACC-257 melanoma
  TGI: 24.6 µM
RXF 393 renal
  TGI: 23.4 µM
NCI/ADR-RES ovarian
  TGI: 83.8 µM
HOP-92 NSCLC
  TGI: 5.45 µM
HCC-2998 colon
  TGI: 53.8 µM
SK-MEL-2 melanoma
  TGI: 29.3 µM
OVCAR-3 ovarian
  TGI: 114 µM
P388/ADR leukemia
  TGI: 34.2 µM
SK-OV-3 ovarian
  TGI: 62.6 µM
HOP-18 NSCLC
  TGI: 50 µM
SK-MEL-5 melanoma
  TGI: 28.1 µM
UO-31 renal
  TGI: 54.9 µM
LOX IMVI melanoma
  TGI: 37.7 µM
A549 NSCLC
  TGI: 103 µM
